Results reported in US20050239656A1, “Pyridine compounds or salts thereof and herbicides containing the same” (priority 2002, published 2005).

Tested on: soybean
Test: Test Example 1: foliage treatment, upland pot test
Format: in vivo, Glycine max Merr.
Settings: crop, active ingredient 500 g/ha, observed 18th to 23rd day, 0 = non-treated, 100 = complete kill
Outline: (§1)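 Sow in upland field soil; grow to leaf stage (barnyardgrass 1.3–2.8, soybean 0.1–0.4, wheat 1.3–2.4, rice 1.2–2.6); spray foliage with compound in water, 500 L/ha, spreader 0.1% (v/v); assess visually at 18–23 d, 0 (as untreated) to 100 (full kill).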

| SMILES | Growth controlling degree (%) Soybean [%] |
| --- | --- |
| Cc1ccccc1CC(=O)N(C)C(c1cnccc1C(F)(F)F)C(C)C (centres unmarked) [I-36] | 70 |

Tested on: crabgrass
Test: Test Example 2: soil surface treatment, upland pot test
Format: in vivo, Digitaria sanguinalis L.
Settings: active ingredient 250 g/ha, observed 20th to 28th day
Outline: (§2)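 Upland soil in pots of 1/170,000 ha is sown; on day 1 after sowing the formulated compound (wettable powder or emulsifiable concentrate, predetermined a.i. amount, water volume 1,500 L/ha) is applied to the soil surface with a small sprayer. Percent control is judged by eye 20–28 days later.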

| SMILES | Growth controlling degree (%) Crabgrass [%] |
| --- | --- |
| CC(C)C(c1cnccc1C(F)(F)F)N(C)S(=O)(=O)c1ccc(Br)cc1 (racemic) [I-136] | 90 |

Same assay, conditions: active ingredient 500 g/ha, observed 20th to 28th day

| SMILES | Growth controlling degree (%) Crabgrass [%] |
| --- | --- |
| Cc1ccccc1CC(=O)N(C)C(c1cnccc1C(F)(F)F)C(C)C (centres unmarked) [I-36] | 98 |

Tested on: barnyardgrass
Test: Test Example 3: paddy pot test, application under submerged conditions
Format: in vivo, Echinochloa crus-galli L.
Settings: active ingredient 250 g/ha; submerged application at 0.5 leaf stage; visually observed 14 days after application; 0 = non-treated, 100 = complete kill
Outline: (§3)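 Paddy soil pots; seeds sown, lightly covered; flooded 0.5–1 cm in greenhouse; wapato tubers planted day 1–2; flood raised to 3–4 cm. Submerged pipette application at 0.5 leaf / primary leaf stage. Visual score day 14, 0–100%.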

| SMILES | Growth controlling degree (%) Barnyardgrass [%] |
| --- | --- |
| CC(C)C(c1cnccc1C(F)(F)F)N(C)S(=O)(=O)c1ccc(Br)cc1 (racemic) [I-136] | 100 |
| Cc1ccccc1CC(=O)N(C)C(c1cnccc1C(F)(F)F)C(C)C (centres unmarked) [I-36] | 100 |

Tested on: corn
Test: Test Example 1: foliage treatment, upland pot test
Format: in vivo, Zea mays L.
Settings: crop, active ingredient 500 g/ha, observed 18th to 23rd day, 0 = non-treated, 100 = complete kill
Outline: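 Corn seeds were sown in upland field soil held in a 1/170,000 ha pot and grown to the 2.1 to 3.2 leaf stage. A wettable powder or emulsifiable concentrate of the test compound was diluted with water at 500 L/ha, given 0.1% (v/v) agricultural spreader, and sprayed onto the foliage with a small sprayer. Growth controlling degree (%) was scored visually 18th to 23rd days later, from 0 (non-treated) to 100 (complete kill).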

| SMILES | Growth controlling degree (%) Corn [%] |
| --- | --- |
| Cc1ccccc1CC(=O)N(C)C(c1cnccc1C(F)(F)F)C(C)C (centres unmarked) [I-36] | 35 |

Tested on: prickly sida
Test: Test Example 1: foliage treatment, upland pot test
Format: in vivo, Sida spinosa L.
Settings: active ingredient 500 g/ha, observed 18th to 23rd day, 0 = non-treated, 100 = complete kill

| SMILES | Growth controlling degree (%) Prickly sida [%] |
| --- | --- |
| Cc1ccccc1CC(=O)N(C)C(c1cnccc1C(F)(F)F)C(C)C (centres unmarked) [I-36] | 90 |

Tested on: japanese ribbon wapato
Test: Test Example 3: paddy pot test, application under submerged conditions
Format: in vivo, Sagittaria pygniaea
Settings: active ingredient 250 g/ha; submerged application at primary leaf stage; visually observed 14 days after application; 0 = non-treated, 100 = complete kill
Outline: as §3

| SMILES | Growth controlling degree (%) Japanese ribbon wapato [%] |
| --- | --- |
| Cc1ccccc1CC(=O)N(C)C(c1cnccc1C(F)(F)F)C(C)C (centres unmarked) [I-36] | 90 |

Tested on: barnyardgrass
Test: Test Example 2: soil surface treatment, upland pot test
Format: in vivo, Echinochloa crus-galli L.
Settings: active ingredient 250 g/ha, observed 20th to 28th day
Outline: as §2

| SMILES | Growth controlling degree (%) Barnyardgrass [%] |
| --- | --- |
| CC(C)C(c1cnccc1C(F)(F)F)N(C)S(=O)(=O)c1ccc(Br)cc1 (racemic) [I-136] | 70 |

Same assay, conditions: active ingredient 500 g/ha, observed 20th to 28th day

| SMILES | Growth controlling degree (%) Barnyardgrass [%] |
| --- | --- |
| Cc1ccccc1CC(=O)N(C)C(c1cnccc1C(F)(F)F)C(C)C (centres unmarked) [I-36] | 100 |

Tested on: corn
Test: as above
Format: in vivo, Zea mays L.
Settings: active ingredient 250 g/ha, observed 20th to 28th day
Outline: as §2

| SMILES | Growth controlling degree (%) Corn [%] |
| --- | --- |
| CC(C)C(c1cnccc1C(F)(F)F)N(C)S(=O)(=O)c1ccc(Br)cc1 (racemic) [I-136] | 20 |

Same assay, conditions: active ingredient 500 g/ha, observed 20th to 28th day

| SMILES | Growth controlling degree (%) Corn [%] |
| --- | --- |
| Cc1ccccc1CC(=O)N(C)C(c1cnccc1C(F)(F)F)C(C)C (centres unmarked) [I-36] | 20 |

Tested on: rice
Test: as above
Format: in vivo, Oryza sativa L.
Settings: active ingredient 250 g/ha, observed 20th to 28th day
Outline: as §2

| SMILES | Growth controlling degree (%) Rice [%] |
| --- | --- |
| CC(C)C(c1cnccc1C(F)(F)F)N(C)S(=O)(=O)c1ccc(Br)cc1 (racemic) [I-136] | 50 |

Same assay, conditions: active ingredient 500 g/ha, observed 20th to 28th day

| SMILES | Growth controlling degree (%) Rice [%] |
| --- | --- |
| Cc1ccccc1CC(=O)N(C)C(c1cnccc1C(F)(F)F)C(C)C (centres unmarked) [I-36] | 30 |

Tested on: green foxtail
Test: as above
Format: in vivo, Setaria viridis L.
Settings: active ingredient 250 g/ha, observed 20th to 28th day
Outline: as §2

| SMILES | Growth controlling degree (%) Green foxtail [%] |
| --- | --- |
| CC(C)C(c1cnccc1C(F)(F)F)N(C)S(=O)(=O)c1ccc(Br)cc1 (racemic) [I-136] | 95 |

Same assay, conditions: active ingredient 500 g/ha, observed 20th to 28th day

| SMILES | Growth controlling degree (%) Green foxtail [%] |
| --- | --- |
| Cc1ccccc1CC(=O)N(C)C(c1cnccc1C(F)(F)F)C(C)C (centres unmarked) [I-36] | 98 |

Tested on: wheat
Test: as above
Format: in vivo, Triticum spp.
Settings: active ingredient 250 g/ha, observed 20th to 28th day
Source text: Upland field soil was put into a 1/170,000 ha pot, and seed of various plants (barnyardgrass, crabgrass, green foxtail, redroot pigweed, prickly sida, velvetleaf, rice, wheat, corn, soybean) were sown. On the 1st day after the sowing, a wettable powder or emulsifiable concentrate having the compound of the present invention formulated in accordance with a usual formulation method, was weighed so that the active ingredient would be a predetermined amount, and diluted with water in an amount of 1,500 L/ha. The herbicide thus adjusted was applied by a small size sprayer for soil surface treatment. On the 20th to 28th days after the application of the herbicide, the growth of the respective plants was visually observed, and the herbicidal effects were evaluated by the growth controlling degrees (%) ranging from 0 (equivalent to the non-treated plot) to 100 (complete kill), whereby the results shown in Table 4, were obtained.

| SMILES | Growth controlling degree (%) wheat [%] |
| --- | --- |
| CC(C)C(c1cnccc1C(F)(F)F)N(C)S(=O)(=O)c1ccc(Br)cc1 (racemic) [I-136] | 10 |

Tested on: japanese bulrush
Test: Test Example 3: paddy pot test, application under submerged conditions
Format: in vivo, Scirpus juncoides
Settings: active ingredient 250 g/ha; submerged application at 0.5 leaf stage; visually observed 14 days after application; 0 = non-treated, 100 = complete kill
Outline: as §3

| SMILES | Growth controlling degree (%) Japanese bulrush [%] |
| --- | --- |
| CC(C)C(c1cnccc1C(F)(F)F)N(C)S(=O)(=O)c1ccc(Br)cc1 (racemic) [I-136] | 70 |
| Cc1ccccc1CC(=O)N(C)C(c1cnccc1C(F)(F)F)C(C)C (centres unmarked) [I-36] | 95 |

Tested on: green foxtail
Test: Test Example 1: foliage treatment, upland pot test
Format: in vivo, Setaria viridis L.
Settings: active ingredient 500 g/ha, observed 18th to 23rd day, 0 = non-treated, 100 = complete kill

| SMILES | Growth controlling degree (%) Green foxtail [%] |
| --- | --- |
| Cc1ccccc1CC(=O)N(C)C(c1cnccc1C(F)(F)F)C(C)C (centres unmarked) [I-36] | 70 |

Tested on: velvetleaf
Test: Test Example 1: foliage treatment, upland pot test
Format: in vivo, Abutilon theophrasti MEDIC.
Settings: active ingredient 500 g/ha, observed 18th to 23rd day, 0 = non-treated, 100 = complete kill

| SMILES | Growth controlling degree (%) Velvetleaf [%] |
| --- | --- |
| Cc1ccccc1CC(=O)N(C)C(c1cnccc1C(F)(F)F)C(C)C (centres unmarked) [I-36] | 70 |

Tested on: redroot pigweed
Test: Test Example 1: foliage treatment, upland pot test
Format: in vivo, Amaranthus retroflexus L.
Settings: active ingredient 500 g/ha, observed 18th to 23rd day, 0 = non-treated, 100 = complete kill

| SMILES | Growth controlling degree (%) Redroot pigweed [%] |
| --- | --- |
| Cc1ccccc1CC(=O)N(C)C(c1cnccc1C(F)(F)F)C(C)C (centres unmarked) [I-36] | 80 |

Tested on: barnyardgrass
Test: Test Example 1: foliage treatment, upland pot test
Format: in vivo, Echinochloa crus-galli L.
Settings: active ingredient 500 g/ha, observed 18th to 23rd day, 0 = non-treated, 100 = complete kill
Outline: as §1

| SMILES | Growth controlling degree (%) Barnyardgrass [%] |
| --- | --- |
| Cc1ccccc1CC(=O)N(C)C(c1cnccc1C(F)(F)F)C(C)C (centres unmarked) [I-36] | 95 |

Tested on: rice (var. Nihonbare)
Test: Test Example 3: paddy pot test, transplanted rice
Format: in vivo, Oryza sativa L.
Settings: active ingredient 250 g/ha, applied 4th day after transplantation, visually observed 21st day after application, 0 = non-treated, 100 = complete kill
Outline: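 Visual crop-injury rating (0 = as untreated, 100 = complete kill, %) taken 21 days post-application. Treatment: formulated compound, water-diluted, pipetted into 3–4 cm flood water at a preset active-ingredient dose, 4 days after transplanting 2-leaf Nihonbare rice 3 cm deep in puddled paddy soil.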

| SMILES | Growth controlling degree (%) Rice [%] |
| --- | --- |
| CC(C)C(c1cnccc1C(F)(F)F)N(C)S(=O)(=O)c1ccc(Br)cc1 (racemic) [I-136] | 0 |
| Cc1ccccc1CC(=O)N(C)C(c1cnccc1C(F)(F)F)C(C)C (centres unmarked) [I-36] | 10 |

Tested on: prickly sida
Test: Test Example 2: soil surface treatment, upland pot test
Format: in vivo, Sida spinosa L.
Settings: active ingredient 250 g/ha, observed 20th to 28th day
Outline: as §2

| SMILES | Growth controlling degree (%) Prickly sida [%] |
| --- | --- |
| CC(C)C(c1cnccc1C(F)(F)F)N(C)S(=O)(=O)c1ccc(Br)cc1 (racemic) [I-136] | 50 |

Same assay, conditions: active ingredient 500 g/ha, observed 20th to 28th day

| SMILES | Growth controlling degree (%) Prickly sida [%] |
| --- | --- |
| Cc1ccccc1CC(=O)N(C)C(c1cnccc1C(F)(F)F)C(C)C (centres unmarked) [I-36] | 100 |

Tested on: velvetleaf
Test: as above
Format: in vivo, Abutilon theophrasti MEDIC.
Settings: active ingredient 250 g/ha, observed 20th to 28th day
Outline: as §2

| SMILES | Growth controlling degree (%) Velvetleaf [%] |
| --- | --- |
| CC(C)C(c1cnccc1C(F)(F)F)N(C)S(=O)(=O)c1ccc(Br)cc1 (racemic) [I-136] | 30 |

Same assay, conditions: active ingredient 500 g/ha, observed 20th to 28th day

| SMILES | Growth controlling degree (%) Velvetleaf [%] |
| --- | --- |
| Cc1ccccc1CC(=O)N(C)C(c1cnccc1C(F)(F)F)C(C)C (centres unmarked) [I-36] | 50 |

Tested on: rice
Test: Test Example 1: foliage treatment, upland pot test
Format: in vivo, Oryza sativa L.
Settings: crop, active ingredient 500 g/ha, observed 18th to 23rd day, 0 = non-treated, 100 = complete kill
Outline: as §1

| SMILES | Growth controlling degree (%) Rice [%] |
| --- | --- |
| Cc1ccccc1CC(=O)N(C)C(c1cnccc1C(F)(F)F)C(C)C (centres unmarked) [I-36] | 10 |

Tested on: crabgrass
Test: Test Example 1: foliage treatment, upland pot test
Format: in vivo, Digitaria sanguinalis L.
Settings: active ingredient 500 g/ha, observed 18th to 23rd day, 0 = non-treated, 100 = complete kill

| SMILES | Growth controlling degree (%) Crabgrass [%] |
| --- | --- |
| Cc1ccccc1CC(=O)N(C)C(c1cnccc1C(F)(F)F)C(C)C (centres unmarked) [I-36] | 98 |

Tested on: soybean
Test: Test Example 2: soil surface treatment, upland pot test
Format: in vivo, Glycine max Merr.
Settings: active ingredient 250 g/ha, observed 20th to 28th day
Outline: as §2

| SMILES | Growth controlling degree (%) Soyabean [%] |
| --- | --- |
| CC(C)C(c1cnccc1C(F)(F)F)N(C)S(=O)(=O)c1ccc(Br)cc1 (racemic) [I-136] | 10 |

Same assay, conditions: active ingredient 500 g/ha, observed 20th to 28th day

| SMILES | Growth controlling degree (%) Soyabean [%] |
| --- | --- |
| Cc1ccccc1CC(=O)N(C)C(c1cnccc1C(F)(F)F)C(C)C (centres unmarked) [I-36] | 10 |

Tested on: redroot pigweed
Test: as above
Format: in vivo, Amaranthus retroflexus L.
Settings: active ingredient 250 g/ha, observed 20th to 28th day
Outline: as §2

| SMILES | Growth controlling degree (%) Redroot pigweed [%] |
| --- | --- |
| CC(C)C(c1cnccc1C(F)(F)F)N(C)S(=O)(=O)c1ccc(Br)cc1 (racemic) [I-136] | 10 |

Same assay, conditions: active ingredient 500 g/ha, observed 20th to 28th day

| SMILES | Growth controlling degree (%) Redroot pigweed [%] |
| --- | --- |
| Cc1ccccc1CC(=O)N(C)C(c1cnccc1C(F)(F)F)C(C)C (centres unmarked) [I-36] | 80 |
